Results from US8501936B2 (priority 2009, dated 2013).

Tests used:
human FAK = human FAK (Homo sapiens (Human), UniProt Q05397); details: read-out: FAK IC50
human JAK2 = human JAK2 (Homo sapiens (Human), UniProt O60674); details: read-out: JAK2 IC50
Chain of human JAK2 (O60674 815-1132): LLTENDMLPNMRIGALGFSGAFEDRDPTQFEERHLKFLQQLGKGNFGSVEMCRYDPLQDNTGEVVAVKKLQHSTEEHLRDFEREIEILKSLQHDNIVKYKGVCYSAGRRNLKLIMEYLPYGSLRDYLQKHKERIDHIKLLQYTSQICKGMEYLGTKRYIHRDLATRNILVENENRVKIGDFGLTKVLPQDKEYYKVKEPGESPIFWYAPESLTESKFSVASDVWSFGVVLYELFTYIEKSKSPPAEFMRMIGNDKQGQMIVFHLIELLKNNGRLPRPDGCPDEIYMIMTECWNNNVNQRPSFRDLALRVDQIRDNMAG

Chain of human FAK (Q05397 whole entry): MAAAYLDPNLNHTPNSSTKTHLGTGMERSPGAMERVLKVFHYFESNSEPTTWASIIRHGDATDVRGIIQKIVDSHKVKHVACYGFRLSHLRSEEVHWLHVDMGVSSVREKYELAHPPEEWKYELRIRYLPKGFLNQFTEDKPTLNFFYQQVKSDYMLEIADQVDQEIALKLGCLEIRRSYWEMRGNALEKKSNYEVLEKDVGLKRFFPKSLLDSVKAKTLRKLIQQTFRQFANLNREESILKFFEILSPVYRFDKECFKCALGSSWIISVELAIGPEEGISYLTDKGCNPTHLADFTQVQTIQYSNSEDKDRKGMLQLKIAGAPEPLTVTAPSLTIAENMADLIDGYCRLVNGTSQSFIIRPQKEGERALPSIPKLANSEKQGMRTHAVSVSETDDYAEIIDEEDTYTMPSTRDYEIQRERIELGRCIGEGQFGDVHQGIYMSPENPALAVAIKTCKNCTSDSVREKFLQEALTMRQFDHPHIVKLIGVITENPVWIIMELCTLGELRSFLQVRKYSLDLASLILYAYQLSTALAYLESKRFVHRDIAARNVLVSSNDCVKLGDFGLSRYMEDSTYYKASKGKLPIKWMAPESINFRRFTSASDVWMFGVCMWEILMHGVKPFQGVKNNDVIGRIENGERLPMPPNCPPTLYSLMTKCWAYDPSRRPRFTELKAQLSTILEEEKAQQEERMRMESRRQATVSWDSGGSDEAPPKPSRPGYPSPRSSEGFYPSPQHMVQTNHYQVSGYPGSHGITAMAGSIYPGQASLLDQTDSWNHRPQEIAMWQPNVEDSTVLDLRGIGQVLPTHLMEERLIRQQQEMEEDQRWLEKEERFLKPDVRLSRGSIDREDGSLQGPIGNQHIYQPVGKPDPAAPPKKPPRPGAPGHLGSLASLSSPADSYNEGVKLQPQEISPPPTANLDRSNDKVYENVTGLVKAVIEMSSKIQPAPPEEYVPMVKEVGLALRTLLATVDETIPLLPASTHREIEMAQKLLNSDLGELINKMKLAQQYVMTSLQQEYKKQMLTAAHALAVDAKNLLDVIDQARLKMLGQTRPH

Row | Compound | IC50 (human FAK) | IC50 (human JAK2)
1 | C[C@H](O)CN1CCN(c2cccc(Nc3nc4c(-c5ccc(S(C)(=O)=O)cc5)cccn4n3)c2)CC1 [Example 142, (S)-1-(4-{3-[8-(4-Methanesulfonyl-phenyl)-[1,2,4]triazolo[1,5-a]pyridin-2-ylamino]-phenyl}-piperazin-1-yl)-propan-2-ol] | 935 nM | 0.75 nM
2 | C[C@@H](O)CN1CCN(c2cccc(Nc3nc4c(-c5ccc(S(C)(=O)=O)cc5)cccn4n3)c2)CC1 [Example 143, (R)-1-(4-{3-[8-(4-Methanesulfonyl-phenyl)-[1,2,4]triazolo[1,5-a]pyridin-2-ylamino]-phenyl}-piperazin-1-yl)-propan-2-ol] | 1990 nM | 1.13 nM
3 | CC(C)(O)CN1CCN(c2cccc(Nc3nc4c(-c5ccc(S(C)(=O)=O)cc5)cccn4n3)c2)CC1 [Example 144, 1-(4-{3-[8-(4-Methanesulfonyl-phenyl)-[1,2,4]triazolo[1,5-a]pyridin-2-ylamino]-phenyl}-piperazin-1-yl)-2-methyl-propan-2-ol] | 2050 nM | 2.61 nM
4 | CS(=O)(=O)c1ccc(-c2cccn3nc(Nc4ccc5c(c4)CCC(N4CCOCC4)CC5)nc23)cc1 (centres unmarked) [Example 145, [8-(4-Methanesulfonyl-phenyl)-[1,2,4]triazolo[1,5-a]pyridin-2-yl]-(7-morpholin-4-yl-6,7,8,9-tetrahydro-5H-benzocyclohepten-2-yl)-amine] | 671 nM | 1.55 nM
5 | CN1CCN(c2ccc(Nc3nc4c(NCc5ccccc5N(C)S(C)(=O)=O)cccn4n3)cc2)CC1 [Example 147, N-Methyl-N-[2-({2-[4-(4-methyl-piperazin-1-yl)-phenylamino]-[1,2,4]triazolo[1,5-a]pyridin-8-ylamino}-methyl)-phenyl]-methanesulfonamide] | 11.4 nM | 29.1 nM
6 | CN1CCC(c2ccc(Nc3nc4c(NCc5ccccc5N(C)S(C)(=O)=O)cccn4n3)cc2)CC1 [Example 149, N-Methyl-N-[2-({2-[4-(1-methyl-piperidin-4-yl)-phenylamino]-[1,2,4]triazolo[1,5-a]pyridin-8-ylamino}-methyl)-phenyl]-methanesulfonamide] | 13.6 nM | 38.5 nM
7 | CN(c1ccccc1CNc1cccn2nc(Nc3ccc(OCCN4CCCC4)cc3)nc12)S(C)(=O)=O [Example 150, N-Methyl-N-[2-({2-[4-(2-pyrrolidin-1-yl-ethoxy)-phenylamino]-[1,2,4]triazolo[1,5-a]pyridin-8-ylamino}-methyl)-phenyl]-methanesulfonamide] | 13 nM | 43.7 nM
8 | CN1CCN(c2ccc(Nc3nc4c(NCc5cccnc5)cccn4n3)cc2)CC1 [Example 151, N(2)-[4-(4-Methyl-piperazin-1-yl)-phenyl]-N(8)-pyridin-3-ylmethyl-[1,2,4]triazolo[1,5-a]pyridine-2,8-diamine] | 6500 nM | 488 nM
9 | CS(=O)(=O)c1ccc(-c2cccn3nc(Nc4cccc(N5CCN(CCO)CC5)c4)nc23)cc1 [Example 152, 2-(4-{3-[8-(4-Methanesulfonyl-phenyl)-[1,2,4]triazolo[1,5-a]pyridin-2-ylamino]-phenyl}-piperazin-1-yl)-ethanol] | 999 nM | 2.37 nM
10 | CN1CCN(c2cccc(Nc3nc4c(NCc5cccnc5)cccn4n3)c2)CC1 [Example 153, N(2)-[3-(4-Methyl-piperazin-1-yl)-phenyl]-N(8)-pyridin-3-ylmethyl-[1,2,4]triazolo[1,5-a]pyridine-2,8-diamine] | 6500 nM | 647 nM
11 | c1cncc(CNc2cccn3nc(Nc4ccc(OCCN5CCCC5)cc4)nc23)c1 [Example 154, N(8)-Pyridin-3-ylmethyl-N(2)-[4-(2-pyrrolidin-1-yl-ethoxy)-phenyl]-[1,2,4]triazolo[1,5-a]pyridine-2,8-diamine] | 10000 nM | 571 nM
12 | CN(c1ncccc1CNc1cccn2nc(Nc3ccc(N4CCN(CCO)CC4)cc3)nc12)S(C)(=O)=O [Example 155, N-{3-[(2-{4-[4-(2-Hydroxy-ethyl)-piperazin-1-yl]-phenylamino}-[1,2,4]triazolo[1,5-a]pyridin-8-ylamino)-methyl]-pyridin-2-yl}-N-methyl-methanesulfonamide] | 379 nM | 36 nM
13 | CN1CCN(c2ccc(Nc3nc4c(NCc5ccccc5CN(C)S(C)(=O)=O)cccn4n3)cc2)CC1 [Example 156, N-Methyl-N-[2-({2-[4-(4-methyl-piperazin-1-yl)-phenylamino]-[1,2,4]triazolo[1,5-a]pyridin-8-ylamino}-methyl)-benzyl]-methanesulfonamide] | 179 nM | 35.4 nM
14 | CN1CCN(c2cccc(Nc3nc4c(NCc5ccccc5CN(C)S(C)(=O)=O)cccn4n3)c2)CC1 [Example 157, N-Methyl-N-[2-({2-[3-(4-methyl-piperazin-1-yl)-phenylamino]-[1,2,4]triazolo[1,5-a]pyridin-8-ylamino}-methyl)-benzyl]-methanesulfonamide] | 300 nM | 220 nM
15 | CN(Cc1ccccc1CNc1cccn2nc(Nc3ccc(OCCN4CCCC4)cc3)nc12)S(C)(=O)=O [Example 158, N-Methyl-N-[2-({2-[4-(2-pyrrolidin-1-yl-ethoxy)-phenylamino]-[1,2,4]triazolo[1,5-a]pyridin-8-ylamino}-methyl)-benzyl]-methanesulfonamide] | 276 nM | 97.5 nM
16 | CN1CCN(c2ccc(Nc3nc4c(NCc5cccc(S(C)(=O)=O)c5)cccn4n3)cc2)CC1 [Example 160, N(8)-(3-Methanesulfonyl-benzyl)-N(2)-[4-(4-methyl-piperazin-1-yl)-phenyl]-[1,2,4]triazolo[1,5-a]pyridine-2,8-diamine] | 10000 nM | 262 nM
17 | CN1CCN(c2cccc(Nc3nc4c(NCc5cccc(S(C)(=O)=O)c5)cccn4n3)c2)CC1 [Example 161, N(8)-(3-Methanesulfonyl-benzyl)-N(2)-[3-(4-methyl-piperazin-1-yl)-phenyl]-[1,2,4]triazolo[1,5-a]pyridine-2,8-diamine] | 10000 nM | 399 nM
18 | CN1CCC(c2ccc(Nc3nc4c(NCc5cccc(S(C)(=O)=O)c5)cccn4n3)cc2)CC1 [Example 162, N(8)-(3-Methanesulfonyl-benzyl)-N(2)-[4-(1-methyl-piperidin-4-yl)-phenyl]-[1,2,4]triazolo[1,5-a]pyridine-2,8-diamine] | 10000 nM | 328 nM
19 | CN1CCN(c2ccc(Nc3nc4c(NCC5CCN(C(=O)OC(C)(C)C)C5)cccn4n3)cc2)CC1 (centres unmarked) [Example 163, 3-({2-[4-(4-Methyl-piperazin-1-yl)-phenylamino]-[1,2,4]triazolo[1,5-a]pyridin-8-ylamino}-methyl)-pyrrolidine-1-carboxylic acid tert-butyl ester] | 10000 nM | 98 nM
20 | CN1CCN(c2ccc(Nc3nc4c(Nc5ccccc5CS(C)(=O)=O)cccn4n3)cc2)CC1 [Example 164, N(8)-(2-Methanesulfonylmethyl-phenyl)-N(2)-[4-(4-methyl-piperazin-1-yl)-phenyl]-[1,2,4]triazolo[1,5-a]pyridine-2,8-diamine] | 1280 nM | 22.1 nM
21 | CN1CCC(c2ccc(Nc3nc4c(Nc5ccccc5CS(C)(=O)=O)cccn4n3)cc2)CC1 [Example 165, N(8)-(2-Methanesulfonylmethyl-phenyl)-N(2)-[4-(1-methyl-piperidin-4-yl)-phenyl]-[1,2,4]triazolo[1,5-a]pyridine-2,8-diamine] | 2000 nM | 39.9 nM
22 | CN1Cc2ccc(Nc3nc4c(NCc5cccnc5N(C)S(C)(=O)=O)cccn4n3)cc2C1 [Example 166, N-Methyl-N-(3-{[2-(2-methyl-2,3-dihydro-1H-isoindol-5-ylamino)-[1,2,4]triazolo[1,5-a]pyridin-8-ylamino]-methyl}-pyridin-2-yl)-methanesulfonamide] | 48.1 nM | 12.8 nM
23 | CN1Cc2ccc(Nc3nc4c(NCc5ccccc5N(C)S(C)(=O)=O)cccn4n3)cc2C1 [Example 167, N-Methyl-N-(2-{[2-(2-methyl-2,3-dihydro-1H-isoindol-5-ylamino)-[1,2,4]triazolo[1,5-a]pyridin-8-ylamino]-methyl}-phenyl)-methanesulfonamide] | 17.8 nM | 9.19 nM
24 | CN1Cc2ccc(Nc3nc4c(-c5ccc(S(C)(=O)=O)cc5)cccn4n3)cc2C1 [Example 168, [8-(4-Methanesulfonyl-phenyl)-[1,2,4]triazolo[1,5-a]pyridin-2-yl]-(2-methyl-2,3-dihydro-1H-isoindol-5-yl)-amine] | 816 nM | 0.73 nM
25 | CN1CCN(c2ccc(Nc3nc4c(NCc5cccc(N(C)S(C)(=O)=O)c5)cccn4n3)cc2)CC1 [Example 169, N-Methyl-N-[3-({2-[4-(4-methyl-piperazin-1-yl)-phenylamino]-[1,2,4]triazolo[1,5-a]pyridin-8-ylamino}-methyl)-phenyl]-methanesulfonamide] | 6500 nM | 145 nM
26 | CN1CCN(c2ccc(Nc3nc4c(Nc5ccccc5CN(C)S(C)(=O)=O)cccn4n3)cc2)CC1 [Example 171, N-Methyl-N-(2-{2-[4-(4-methyl-piperazin-1-yl)-phenylamino]-[1,2,4]triazolo[1,5-a]pyridin-8-ylamino}-benzyl)-methanesulfonamide] | 999 nM | 70.8 nM
27 | CN1CCN(c2cccc(Nc3nc4c(Nc5ccccc5CN(C)S(C)(=O)=O)cccn4n3)c2)CC1 [Example 172, N-Methyl-N-(2-{2-[3-(4-methyl-piperazin-1-yl)-phenylamino]-[1,2,4]triazolo[1,5-a]pyridin-8-ylamino}-benzyl)-methanesulfonamide] | 3000 nM | 453 nM
28 | CN(Cc1ccccc1Nc1cccn2nc(Nc3ccc(OCCN4CCCC4)cc3)nc12)S(C)(=O)=O [Example 173, N-Methyl-N-(2-{2-[4-(2-pyrrolidin-1-yl-ethoxy)-phenylamino]-[1,2,4]triazolo[1,5-a]pyridin-8-ylamino}-benzyl)-methanesulfonamide] | 2000 nM | 143 nM
